Laboratory results from patent US20250339374A1, “BONDED MICROPARTICULATES PREPARATION AND APPLICATIONS THEREOF” (Venkor Corporation, priority 2022, published 2025).
Like-named read-outs stand apart in the source and are kept apart here.

Key:
[1] = in water; description of the solid particulate material in the composition table; cited from earlier work
[2] = Sieve analysis (particle size) of solid particulate material and BMPX, USP <786>; type: physicochemical; conditions: solid particulate material; for Particle size: description in composition table
Text: For example, to prepare tablets, certain excipients such as disintegrants, lubricants, glidants etc. may be added to the bonded microparticulates to further facilitate forming the tablet.

[3] = Tapped density, USP <616>; type: physicochemical; conditions: solid particulate material, description in composition table; equals tapped density of Active
Description: In addition to screen analysis, the tap density and the bulk density of the bonded microparticulates and solid particulate material were determined.

[4] = Solubility in water of solid particulate material (descriptive); type: physicochemical
Description: In some embodiments, the solid particulate starting material is hydrophilic or hydrophobic or lipophilic in character. Solubility of drugs is measured by the amount of solvent needed to dissolve one part of the drug at a specific temperature. For example, a drug that is very soluble needs less than one part of solvent to dissolve one part of the drug. A drug that is considered freely soluble needs 1 to 10 parts of solvent, one that is soluble needs 10 to 30 parts of solvent, one that sparingly soluble need 30 to 100 parts of solvent, one that is slightly soluble needs 100-1,000 parts and one that is practically insoluble or insoluble needs more than 10,000 parts, per part of solute.

[5] = description in composition table

Molecule	Solubility [1]	Density [3]	Particle size [2]	further results
CCOC(=O)C1=C(COCCN)NC(C)=C(C(=O)OC)C1c1ccccc1Cl (centres unmarked) [Amlodipine Besylate]	Solubility- insoluble in water			
O=C([O-])[O-].[Ca+2] [Calcium Carbonate]		Density -1.2(High Density)		retain on 60mesh ([2]; 60 mesh): ≥ 90% retain on 60mesh
COc1ccccc1OCC(O)CO (centres unmarked) [Guaifenesin]	Solubility- soluble in water			
CC(C)Cc1ccc(C(C)C(=O)O)cc1 (centres unmarked) [Ibuprofen]	Solubility- in soluble in water			
OC[C@@H](O)[C@@H](O)[C@H](O)[C@H](O)CO [Mannitol]				Solubility ([4]; in water): Solubility- insoluble in water
O=C(O)c1cccnc1 [Niacin]	Solubility- soluble in water			
O=C([O-])O.[Na+] [Sodium Bicarbonate, reference compound]		Density -1.19 (High Density)-	74 microns	retain on 200# ([2]; 200 mesh): 70.8%
OC[C@@H](O)[C@H](O)[C@@H](O)CO [Xylitol-90]				Solubility ([4]; in water): Solubility- soluble in water
OC[C@@H](O)[C@H](O)[C@@H](O)CO [Xylitol-300]		Density -0.83 (High Density)	Particle size- 149 microns	Solubility [4, 5]: Solubility- soluble in water
Fructo-Oligosaccharide		Density -0.75 (High Density)	Particle size- 149 microns	Solubility [4, 5]: Solubility- soluble in water
Sugar powder				Solubility ([4]; in water): Solubility- soluble in water
Zinc Gluconate		Density- 0.6(Medium density)	Particle size- 177 microns	
